Measured values as given in ChEMBL document CHEMBL5579838, “Design, synthesis and antitumor activity of a novel FGFR2-selective degrader to overcome resistance of the FGFR2V564F gatekeeper mutation based on a pan-FGFR inhibitor” (Eur J Med Chem, 2024).
Calls of active or inactive are those of the source. The calls are words filed in the database; no cut-off is given here.

Tests used:
[1] = target: von Hippel-Lindau disease tumor suppressor/Fibroblast growth factor receptor 2 (Homo sapiens, UniProt P21802+P40337); assay: PROTAC activity at VHL/FGFR2 in human KATO III cells assessed as induction of FGFR2 degradation incubated for 24 hrs by Western blot analysis; type: cell-based; conditions: kato iii stomach cancer cell line
[2] = target: T1, Fibroblast growth factor receptor 3 (Homo sapiens, UniProt P22607); assay: Induction of FGFR3 degradation in human MCF7 cells assessed as reduction in FGFR3 level at 0 to 300 nM measured after 24 hrs by Western blot analysis; type: cell-based; conditions: dose 0-300 nM
[3] = target: T2, Fibroblast growth factor receptor 4 (Homo sapiens, UniProt P22455); assay: Induction of FGFR4 degradation in human Huh-7 cells assessed as reduction in FGFR4 level at 0 to 300 nM measured after 24 hrs by Western blot analysis; type: cell-based; conditions: dose 0-300 nM
[4] = target: T3, Fibroblast growth factor receptor 1 (Homo sapiens, UniProt P11362); assay: Induction of FGFR1 degradation in human BXPC-3 cells assessed as reduction in FGFR1 level at 300 nM measured after 24 hrs by Western blot analysis relative to control; type: cell-based; set-up: scale not given: the % may be the effect or the level left
Target sequence in this assay (P11362 22-822 limits assumed): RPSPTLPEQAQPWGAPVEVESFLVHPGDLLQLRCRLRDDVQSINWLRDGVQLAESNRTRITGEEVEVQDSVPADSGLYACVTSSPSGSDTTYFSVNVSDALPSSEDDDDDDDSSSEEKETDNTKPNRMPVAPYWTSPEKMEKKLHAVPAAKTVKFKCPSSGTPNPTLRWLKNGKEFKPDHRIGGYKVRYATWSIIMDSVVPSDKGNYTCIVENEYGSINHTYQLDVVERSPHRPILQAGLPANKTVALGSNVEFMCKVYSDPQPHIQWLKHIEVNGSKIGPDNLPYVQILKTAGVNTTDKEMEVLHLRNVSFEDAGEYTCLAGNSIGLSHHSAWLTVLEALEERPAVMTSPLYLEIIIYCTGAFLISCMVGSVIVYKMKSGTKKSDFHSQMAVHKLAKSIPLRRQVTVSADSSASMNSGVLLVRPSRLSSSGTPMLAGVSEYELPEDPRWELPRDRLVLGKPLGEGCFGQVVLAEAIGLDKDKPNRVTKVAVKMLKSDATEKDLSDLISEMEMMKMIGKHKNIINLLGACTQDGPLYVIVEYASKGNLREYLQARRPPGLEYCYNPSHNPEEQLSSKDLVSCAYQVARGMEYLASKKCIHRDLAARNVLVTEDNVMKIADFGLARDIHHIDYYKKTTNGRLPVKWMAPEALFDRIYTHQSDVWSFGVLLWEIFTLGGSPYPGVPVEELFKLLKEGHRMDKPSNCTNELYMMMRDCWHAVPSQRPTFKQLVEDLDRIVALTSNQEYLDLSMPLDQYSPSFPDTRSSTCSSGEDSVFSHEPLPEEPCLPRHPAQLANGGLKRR

[5] = target: Vascular endothelial growth factor receptor 2 (Homo sapiens) (UniProt P35968); assay: Induction of VEGFR2 (unknown origin) degradation
[6] = tested on: KATO III stomach cancer cell line; assay: Inhibition of PLC-gamma autophosphorylation in human KATO III cells at 1 to 10 nM measured after 24 hrs by Western blot analysis; type: cell-based; conditions: dose 1-10 nM
[7] = target: T4, Fibroblast growth factor receptor substrate 2 (Homo sapiens) (UniProt Q8WU20); assay: Inhibition of FRS2 autophosphorylation in human KATO III cells at 1 to 10 nM measured after 24 hrs by Western blot analysis; type: cell-based; conditions: KATO III stomach cancer cell line, dose 1-10 nM
T4 sequence (whole entry): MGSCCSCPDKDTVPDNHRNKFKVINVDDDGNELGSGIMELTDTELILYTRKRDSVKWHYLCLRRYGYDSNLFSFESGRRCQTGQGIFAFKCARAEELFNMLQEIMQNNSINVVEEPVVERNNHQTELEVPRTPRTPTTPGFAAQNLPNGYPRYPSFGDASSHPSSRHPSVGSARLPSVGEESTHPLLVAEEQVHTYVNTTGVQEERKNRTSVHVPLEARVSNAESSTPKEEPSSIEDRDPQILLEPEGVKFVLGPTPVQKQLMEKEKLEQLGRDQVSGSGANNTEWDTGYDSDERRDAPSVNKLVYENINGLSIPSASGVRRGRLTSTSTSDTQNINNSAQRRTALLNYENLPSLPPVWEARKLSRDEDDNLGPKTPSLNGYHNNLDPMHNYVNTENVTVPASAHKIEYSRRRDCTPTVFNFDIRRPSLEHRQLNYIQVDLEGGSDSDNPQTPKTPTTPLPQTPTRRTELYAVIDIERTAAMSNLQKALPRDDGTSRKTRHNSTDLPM

[8] = target: T3, Fibroblast growth factor receptor 1
Target sequence in this assay (P11362 whole entry): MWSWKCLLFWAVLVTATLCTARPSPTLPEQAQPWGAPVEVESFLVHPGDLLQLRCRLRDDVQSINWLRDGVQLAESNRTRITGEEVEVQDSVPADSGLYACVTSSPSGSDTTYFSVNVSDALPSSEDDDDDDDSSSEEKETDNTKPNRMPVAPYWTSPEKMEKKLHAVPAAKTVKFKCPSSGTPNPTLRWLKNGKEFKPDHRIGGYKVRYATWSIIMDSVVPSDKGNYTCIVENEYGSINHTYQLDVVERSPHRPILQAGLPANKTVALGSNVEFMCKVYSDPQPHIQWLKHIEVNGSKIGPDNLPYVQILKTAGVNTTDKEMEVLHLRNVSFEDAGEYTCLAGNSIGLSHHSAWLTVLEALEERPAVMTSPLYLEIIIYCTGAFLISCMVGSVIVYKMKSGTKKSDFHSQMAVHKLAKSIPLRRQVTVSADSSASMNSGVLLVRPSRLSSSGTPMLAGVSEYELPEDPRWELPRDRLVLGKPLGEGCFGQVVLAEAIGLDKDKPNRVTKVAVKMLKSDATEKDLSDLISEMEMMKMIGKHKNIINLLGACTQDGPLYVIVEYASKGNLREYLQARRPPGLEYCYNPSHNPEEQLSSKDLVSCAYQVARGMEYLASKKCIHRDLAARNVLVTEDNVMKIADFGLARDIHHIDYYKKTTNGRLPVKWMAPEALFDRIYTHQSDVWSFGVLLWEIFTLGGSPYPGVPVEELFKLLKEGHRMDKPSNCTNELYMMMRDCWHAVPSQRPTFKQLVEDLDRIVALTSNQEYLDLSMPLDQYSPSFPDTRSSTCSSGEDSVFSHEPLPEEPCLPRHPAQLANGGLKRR
Description: Inhibition of FGFR1 (unknown origin)

[9] = target: T1, Fibroblast growth factor receptor 3
Target sequence in this assay (P22607 whole entry): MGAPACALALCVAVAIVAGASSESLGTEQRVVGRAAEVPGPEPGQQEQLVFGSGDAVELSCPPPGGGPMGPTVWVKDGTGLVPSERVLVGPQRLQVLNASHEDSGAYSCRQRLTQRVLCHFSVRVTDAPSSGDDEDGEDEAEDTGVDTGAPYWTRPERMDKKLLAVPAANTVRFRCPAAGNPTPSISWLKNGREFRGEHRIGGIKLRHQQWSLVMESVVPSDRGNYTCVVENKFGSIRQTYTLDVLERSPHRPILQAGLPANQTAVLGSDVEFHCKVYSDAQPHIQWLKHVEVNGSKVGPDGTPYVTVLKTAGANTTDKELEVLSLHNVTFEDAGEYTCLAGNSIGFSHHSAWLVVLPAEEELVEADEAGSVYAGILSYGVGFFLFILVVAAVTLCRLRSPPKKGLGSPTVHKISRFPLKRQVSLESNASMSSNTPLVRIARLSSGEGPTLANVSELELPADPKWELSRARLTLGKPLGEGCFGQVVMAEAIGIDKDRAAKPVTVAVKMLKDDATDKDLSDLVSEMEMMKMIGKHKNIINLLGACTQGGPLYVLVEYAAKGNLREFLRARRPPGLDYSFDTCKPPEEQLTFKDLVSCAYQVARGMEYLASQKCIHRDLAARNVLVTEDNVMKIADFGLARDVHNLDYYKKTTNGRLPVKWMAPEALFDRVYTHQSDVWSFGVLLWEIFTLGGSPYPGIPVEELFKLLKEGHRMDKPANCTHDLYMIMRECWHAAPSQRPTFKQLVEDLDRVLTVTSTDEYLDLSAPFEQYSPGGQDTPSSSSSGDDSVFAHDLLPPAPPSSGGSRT
Description: Inhibition of FGFR3 (unknown origin)

[10] = target: T2, Fibroblast growth factor receptor 4
Target sequence in this assay (P22455 whole entry): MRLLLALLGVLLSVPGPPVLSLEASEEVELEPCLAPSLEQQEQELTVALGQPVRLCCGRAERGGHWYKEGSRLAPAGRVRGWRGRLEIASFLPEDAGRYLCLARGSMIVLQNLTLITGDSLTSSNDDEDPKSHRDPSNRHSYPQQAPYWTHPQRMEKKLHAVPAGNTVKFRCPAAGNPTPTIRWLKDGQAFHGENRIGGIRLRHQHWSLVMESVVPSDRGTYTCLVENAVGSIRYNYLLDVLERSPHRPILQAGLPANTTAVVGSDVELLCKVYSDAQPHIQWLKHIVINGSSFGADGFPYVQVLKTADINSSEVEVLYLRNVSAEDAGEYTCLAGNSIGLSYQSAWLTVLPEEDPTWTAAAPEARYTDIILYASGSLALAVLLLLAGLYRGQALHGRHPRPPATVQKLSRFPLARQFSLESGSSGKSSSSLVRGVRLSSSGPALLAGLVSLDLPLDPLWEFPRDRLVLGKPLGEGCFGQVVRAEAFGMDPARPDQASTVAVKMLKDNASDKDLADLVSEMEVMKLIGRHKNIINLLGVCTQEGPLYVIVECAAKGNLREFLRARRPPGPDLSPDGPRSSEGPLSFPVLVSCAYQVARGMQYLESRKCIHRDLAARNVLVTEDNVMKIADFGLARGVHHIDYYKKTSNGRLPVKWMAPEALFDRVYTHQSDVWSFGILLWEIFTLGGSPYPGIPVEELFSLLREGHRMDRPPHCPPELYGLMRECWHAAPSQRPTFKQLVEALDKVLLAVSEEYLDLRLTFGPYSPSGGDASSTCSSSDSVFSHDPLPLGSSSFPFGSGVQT
Description: Inhibition of FGFR4 (unknown origin)

BaF3 [11] = assay: Antiproliferative activity against mouse BaF3 cells stably expressing wild type ETV6-FGFR1 fusion protein incubated for 72 hrs by CCK-8 assay; type: functional, cell-based; conditions: BaF3, 72 h
BaF3 [12] = assay: Antiproliferative activity against mouse BaF3 cells stably expressing wild type ETV6-FGFR2 fusion protein incubated for 72 hrs by CCK-8 assay; type: functional, cell-based; conditions: BaF3, 72 h
BaF3 [13] = assay: Antiproliferative activity against mouse BaF3 cells stably expressing wild type ETV6-FGFR3 fusion protein incubated for 72 hrs by CCK-8 assay; type: functional, cell-based; conditions: BaF3, 72 h
BaF3 [14] = assay: Antiproliferative activity against mouse BaF3 cells stably expressing wild type ETV6-FGFR4 fusion protein incubated for 72 hrs by CCK-8 assay; type: functional, cell-based; conditions: BaF3, 72 h
AN3-CA [15] = assay: Inhibition of cell migration in adherent human AN3-CA cells overexpressing FGFR2 assessed as inhibition of lateral migration at 10 nM incubated for 48 hrs by wound healing assay relative to control; type: functional
[16] = tested on: KATO III stomach cancer cell line; assay: Induction of cell cycle arrest at G0/G1 phase in FGFR2 amplified human KATO III cells at 0.1 to 10 nM incubated for 24 hrs by PI staining based flow cytometry analysis; type: functional; conditions: dose 0.1-10 nM
[17] = tested on: KATO III stomach cancer cell line; assay: Induction of cell cycle arrest at G0/G1 phase in FGFR2 amplified human KATO III cells assessed as inhibition of cyclin D1 protein expression at 0.1 to 10 nM by Western blot analysis; type: functional, cell-based; conditions: dose 0.1-10 nM
[18] = tested on: KATO III stomach cancer cell line; assay: Induction of cell cycle arrest at G0/G1 phase in FGFR2 amplified human KATO III cells assessed as inhibition of CDK4 protein expression at 0.1 to 10 nM by Western blot analysis; type: functional, cell-based; conditions: dose 0.1-10 nM
[19] = tested on: KATO III stomach cancer cell line; assay: Induction of cell cycle arrest at G0/G1 phase in FGFR2 amplified human KATO III cells assessed as inhibition of CDK6 protein expression at 0.1 to 10 nM by Western blot analysis; type: functional, cell-based; conditions: dose 0.1-10 nM
[20] = Cmax in overnight fasted mouse at 1 mg/kg, iv administered as single dose by LC-MS/MS analysis; type: ADME, organism-based; conditions: in vivo
[21] = Half life in overnight fasted mouse at 1 mg/kg, iv administered as single dose by LC-MS/MS analysis; type: ADME, organism-based; conditions: in vivo
[22] = AUC (0 to t) in overnight fasted mouse at 1 mg/kg, iv administered as single dose by LC-MS/MS analysis; type: ADME, organism-based; conditions: in vivo
[23] = Cmax in overnight fasted mouse at 10 mg/kg, po administered as single dose by LC-MS/MS analysis; type: ADME, organism-based; conditions: in vivo
[24] = Tmax in overnight fasted mouse at 10 mg/kg, po administered as single dose by LC-MS/MS analysis; type: ADME, organism-based; conditions: in vivo
[25] = Half life in overnight fasted mouse at 10 mg/kg, po administered as single dose by LC-MS/MS analysis; type: ADME, organism-based; conditions: in vivo
[26] = AUC (0 to t) in overnight fasted mouse at 10 mg/kg, po administered as single dose by LC-MS/MS analysis; type: ADME, organism-based; conditions: in vivo
[27] = Oral bioavailability in overnight fasted mouse at 10 mg/kg administered as single dose by LC-MS/MS analysis; type: ADME, organism-based; conditions: in vivo
[28] = target: T1, Fibroblast growth factor receptor 3; assay: Induction of FGFR3 degradation in human MCF7 cells assessed as reduction in FGFR3 level measured after 24 hrs by Western blot analysis; type: cell-based
Target sequence in this assay (P22607 whole entry): as the sequence (P22607 whole entry) above

[29] = target: T2, Fibroblast growth factor receptor 4; assay: Induction of FGFR4 degradation in human Huh-7 cells assessed as reduction in FGFR4 level measured after 24 hrs by Western blot analysis; type: cell-based
Target sequence in this assay (P22455 whole entry): as the sequence (P22455 whole entry) above

[30] = target: T3, Fibroblast growth factor receptor 1; assay: Induction of FGFR1 degradation in human BXPC-3 cells assessed as reduction in FGFR1 level measured after 24 hrs by Western blot analysis; type: cell-based
Target sequence in this assay (P11362 whole entry): as the sequence (P11362 whole entry) above

[31] = tested on: KATO III stomach cancer cell line; assay: cells; conditions: Homo sapiens, 72 h
Description: Antiproliferative activity against FGFR2 amplified human KATO III cells measured after 3 days by MTT assay

SNU-16 = assay: cells; conditions: Homo sapiens, SNU-16, 72 h
Description: Antiproliferative activity against FGFR2 amplified human SNU-16 cells measured after 72 hrs by MTT assay

AN3-CA [32] = assay: cells; conditions: Homo sapiens, 72 h
Description: Antiproliferative activity against human AN3-CA cells overexpressing FGFR2 measured after 72 hrs by MTT assay

NCI-H1975 = assay: cells; conditions: Homo sapiens, NCI-H1975, 72 h
A2780 = assay: cells; conditions: Homo sapiens, A2780, 72 h
BXPC-3 = assay: cells; conditions: Homo sapiens, BXPC-3, 72 h
cells = conditions: Homo sapiens, Huh-7, 72 h
MDA-MB-231 = assay: cells; conditions: Homo sapiens, MDA-MB-231, 72 h
SNU-449 = assay: cells; conditions: Homo sapiens, SNU-449, 72 h
HCT-116 = assay: cells; conditions: Homo sapiens, HCT-116, 72 h
MCF7 = assay: cells; conditions: Homo sapiens, MCF7, 72 h
in vitro [33] = conditions: human, L02 cells
in vitro [34] = conditions: human, HEK293T cells

Vascular endothelial growth factor receptor 2 (Homo sapiens), sequence (P35968 whole entry): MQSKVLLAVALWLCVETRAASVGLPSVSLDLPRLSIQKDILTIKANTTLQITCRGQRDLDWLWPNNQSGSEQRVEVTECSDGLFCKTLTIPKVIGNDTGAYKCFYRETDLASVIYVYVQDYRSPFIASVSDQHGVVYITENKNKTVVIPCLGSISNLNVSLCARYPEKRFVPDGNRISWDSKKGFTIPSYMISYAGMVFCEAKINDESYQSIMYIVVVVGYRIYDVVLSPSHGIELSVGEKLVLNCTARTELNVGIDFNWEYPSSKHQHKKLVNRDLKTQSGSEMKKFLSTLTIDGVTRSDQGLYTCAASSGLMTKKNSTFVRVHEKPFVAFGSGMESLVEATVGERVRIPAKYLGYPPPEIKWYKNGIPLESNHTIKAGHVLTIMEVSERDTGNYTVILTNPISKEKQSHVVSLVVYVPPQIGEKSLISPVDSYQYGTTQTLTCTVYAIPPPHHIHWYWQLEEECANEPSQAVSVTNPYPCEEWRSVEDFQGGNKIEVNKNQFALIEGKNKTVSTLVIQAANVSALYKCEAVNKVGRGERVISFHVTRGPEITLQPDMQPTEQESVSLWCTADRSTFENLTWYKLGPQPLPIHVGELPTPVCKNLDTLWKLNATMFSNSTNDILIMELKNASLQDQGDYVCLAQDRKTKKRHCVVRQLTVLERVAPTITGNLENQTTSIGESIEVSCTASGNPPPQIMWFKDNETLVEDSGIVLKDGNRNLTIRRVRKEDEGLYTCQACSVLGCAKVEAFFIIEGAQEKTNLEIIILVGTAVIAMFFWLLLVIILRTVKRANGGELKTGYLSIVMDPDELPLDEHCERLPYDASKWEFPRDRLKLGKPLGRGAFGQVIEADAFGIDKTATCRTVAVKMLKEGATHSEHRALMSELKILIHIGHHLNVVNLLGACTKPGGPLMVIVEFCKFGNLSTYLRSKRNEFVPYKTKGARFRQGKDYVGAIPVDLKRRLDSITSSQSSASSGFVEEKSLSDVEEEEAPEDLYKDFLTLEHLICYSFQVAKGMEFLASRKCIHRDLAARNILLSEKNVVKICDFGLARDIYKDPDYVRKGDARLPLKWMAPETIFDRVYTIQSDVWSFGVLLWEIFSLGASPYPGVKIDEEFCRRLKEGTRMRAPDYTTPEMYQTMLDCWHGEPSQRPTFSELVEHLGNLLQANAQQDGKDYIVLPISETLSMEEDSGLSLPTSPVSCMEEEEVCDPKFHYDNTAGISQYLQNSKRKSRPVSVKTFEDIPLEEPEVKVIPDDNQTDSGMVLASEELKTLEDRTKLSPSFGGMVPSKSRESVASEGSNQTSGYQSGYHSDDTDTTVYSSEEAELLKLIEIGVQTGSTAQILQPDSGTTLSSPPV

COc1cc(OC)c(Cl)c(NC(=O)N(C)c2cc(Nc3ccc(N4CCN(CC(=O)N[C@H](C(=O)N5C[C@H](O)C[C@H]5C(=O)N[C@@H](C)c5ccc(-c6scnc6C)cc5)C(C)(C)C)CC4)cc3)ncn2)c1Cl
DC50 [1]: 70 nM

C[C@@H](Oc1ccc2[nH]nc(/C=C/c3cnn(CCNC(=O)CCCCCNc4ccc5c(c4)C(=O)N(C4CCC(=O)NC4=O)C5=O)c3)c2c1)c1c(Cl)cncc1Cl (stereo partly drawn)
Activity [2]: inactive | Activity [3]: inactive | Activity [4]: 30% | Activity [5]: inactive | inhibition [6]: Active | inhibition [7]: Active | IC50 [8]: 1.47 nM | IC50 [9]: 1.26 nM | IC50 [10]: 15.1 nM | IC50 (BaF3 [11]): 27.5 nM | IC50 (BaF3 [12]): 0.91 nM | IC50 (BaF3 [13]): 0.2 nM | IC50 (BaF3 [14]): 32.7 nM | inhibition at 0.01 µM (AN3-CA [15]): > 15% | Activity [16]: Active | Activity [17]: Active | Activity [18]: Active | Activity [19]: Active | Cmax [20]: 1940 ng/mL | half-life [21]: 4.14 min | AUC(0-t) [22]: 151 ng·h/mL | Cmax [23]: 19.4 ng/mL | Tmax [24]: 30 min | half-life [25]: 45 min | AUC(0-t) [26]: 9.61 ng·h/mL | bioavailability [27]: 0.64% | DC50 [28]: > 300 nM | DC50 [29]: > 300 nM | DC50 [30]: > 300 nM | IC50 [31]: 0.79 nM | IC50 (SNU-16): 0.207 nM | IC50 (AN3-CA [32]): 4.63 nM | IC50 (NCI-H1975): 2240 nM | IC50 (A2780): 627 nM | IC50 (BXPC-3): 997 nM | IC50 (cells): > 5000 nM | IC50 (MDA-MB-231): 2520 nM | IC50 (SNU-449): 923 nM | IC50 (HCT-116): 1910 nM | IC50 (MCF7): 2980 nM | IC50 at 72 h (in vitro [33]): > 5000 nM | IC50 at 72 h (in vitro [34]): 2140 nM
